{"source": "patent US12691140B2", "about": "“Therapeutic carbon monoxide formulations” (THE BRIGHAM AND WOMEN'S HOSPITAL, INC., priority 2020, dated 2026)", "origin": "cited, not measured here", "conditions": "dogs, abdominal insufflation to COHb levels comparable to inhalation", "data": [{"molecule": "[C-]#[O+]", "note": "[CO, Carbon monoxide]", "values": [{"measurement": "toxicity", "value": "no toxicity"}]}]}
